Assay results from patent US20240383875A1, “Benzimidazole Pyridine Derivatives” (Hoffmann-La Roche Inc., priority 2022, published 2024).
pIC50: −log10 of the molar value.

Columns and labels:
Format in all cases: biochemical
SIK2 = SIK2 (Homo sapiens, UniProt Q9H0K1); assay: Enzymatic activity assay SIK2, RapidFire mass spectrometry (phosphorylation of CHK-peptide); details: RapidFire MS, inhibition of SIK2; read-out: SIK2 RF IC50
How it was run: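 Read-out is the summed phospho-species fraction of CHK-peptide by RapidFire mass spectrometry, normalized between DMSO and 1 μM YKL-05-099. The reaction used 0.5 nM SIK2, 100 μM ATP and 10 μM peptide solutions in HEPES pH 7.0/10 mM magnesium acetate for 45 min at ambient temperature.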

SIK3 = SIK3 (Homo sapiens, UniProt Q9Y2K2); assay: Enzymatic activity assay SIK3, RapidFire mass spectrometry (phosphorylation of CHK-peptide); details: RapidFire MS, inhibition of SIK3; read-out: SIK3 RF IC50
Sequence of SIK3 (Q9Y2K2 whole entry): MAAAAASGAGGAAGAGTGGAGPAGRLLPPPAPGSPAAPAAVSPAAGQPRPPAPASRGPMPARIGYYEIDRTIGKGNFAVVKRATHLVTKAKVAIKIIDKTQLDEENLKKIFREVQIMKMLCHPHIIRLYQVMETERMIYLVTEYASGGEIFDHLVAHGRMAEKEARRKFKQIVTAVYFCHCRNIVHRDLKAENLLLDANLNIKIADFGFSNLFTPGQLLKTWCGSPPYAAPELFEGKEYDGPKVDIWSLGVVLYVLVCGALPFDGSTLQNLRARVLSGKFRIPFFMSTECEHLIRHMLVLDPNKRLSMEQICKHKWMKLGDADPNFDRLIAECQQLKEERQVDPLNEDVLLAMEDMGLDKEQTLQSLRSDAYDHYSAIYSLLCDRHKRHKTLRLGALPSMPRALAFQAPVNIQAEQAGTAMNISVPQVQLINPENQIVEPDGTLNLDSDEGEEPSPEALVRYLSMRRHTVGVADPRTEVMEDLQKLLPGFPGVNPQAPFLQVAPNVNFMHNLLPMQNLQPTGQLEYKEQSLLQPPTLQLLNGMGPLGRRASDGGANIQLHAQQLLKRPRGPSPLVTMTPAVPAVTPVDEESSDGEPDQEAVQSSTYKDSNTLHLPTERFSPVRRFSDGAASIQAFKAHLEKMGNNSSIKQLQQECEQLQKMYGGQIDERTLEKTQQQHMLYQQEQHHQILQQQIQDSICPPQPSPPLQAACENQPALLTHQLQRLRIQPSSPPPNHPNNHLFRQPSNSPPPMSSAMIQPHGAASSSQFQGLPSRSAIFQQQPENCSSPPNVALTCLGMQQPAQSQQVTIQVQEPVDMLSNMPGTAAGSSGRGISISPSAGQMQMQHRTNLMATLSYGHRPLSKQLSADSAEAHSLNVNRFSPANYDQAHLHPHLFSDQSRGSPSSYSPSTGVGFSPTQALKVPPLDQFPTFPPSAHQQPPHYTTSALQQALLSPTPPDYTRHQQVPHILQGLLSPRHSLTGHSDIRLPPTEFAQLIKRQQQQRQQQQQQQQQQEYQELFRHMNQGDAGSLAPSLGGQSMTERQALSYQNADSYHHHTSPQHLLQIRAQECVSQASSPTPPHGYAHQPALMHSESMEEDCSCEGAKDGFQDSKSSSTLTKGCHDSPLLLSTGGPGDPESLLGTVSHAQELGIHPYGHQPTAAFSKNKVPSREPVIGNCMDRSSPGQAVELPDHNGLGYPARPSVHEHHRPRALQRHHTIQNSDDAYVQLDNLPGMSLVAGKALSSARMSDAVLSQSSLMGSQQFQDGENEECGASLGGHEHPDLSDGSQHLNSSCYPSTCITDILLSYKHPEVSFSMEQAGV
How it was run: (§1)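 Human SIK1/2/3, 5/0.5/1.5 nM; 12.5 mM HEPES pH 7.0, 10 mM Mg acetate, 0.005% BSA. 30 min cpd pre-inc, + CHK-peptide (10 μM soln) + ATP (100 μM soln), 45 min RT. Formic acid stop; RF-MS phospho ratio; IC50.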

SIK1 = SIK1 (Homo sapiens, UniProt P57059); assay: Enzymatic activity assay SIK1, RapidFire mass spectrometry (phosphorylation of CHK-peptide); details: RapidFire MS, inhibition of SIK1; read-out: SIK1 RF IC50
Sequence of SIK1 (P57059 whole entry): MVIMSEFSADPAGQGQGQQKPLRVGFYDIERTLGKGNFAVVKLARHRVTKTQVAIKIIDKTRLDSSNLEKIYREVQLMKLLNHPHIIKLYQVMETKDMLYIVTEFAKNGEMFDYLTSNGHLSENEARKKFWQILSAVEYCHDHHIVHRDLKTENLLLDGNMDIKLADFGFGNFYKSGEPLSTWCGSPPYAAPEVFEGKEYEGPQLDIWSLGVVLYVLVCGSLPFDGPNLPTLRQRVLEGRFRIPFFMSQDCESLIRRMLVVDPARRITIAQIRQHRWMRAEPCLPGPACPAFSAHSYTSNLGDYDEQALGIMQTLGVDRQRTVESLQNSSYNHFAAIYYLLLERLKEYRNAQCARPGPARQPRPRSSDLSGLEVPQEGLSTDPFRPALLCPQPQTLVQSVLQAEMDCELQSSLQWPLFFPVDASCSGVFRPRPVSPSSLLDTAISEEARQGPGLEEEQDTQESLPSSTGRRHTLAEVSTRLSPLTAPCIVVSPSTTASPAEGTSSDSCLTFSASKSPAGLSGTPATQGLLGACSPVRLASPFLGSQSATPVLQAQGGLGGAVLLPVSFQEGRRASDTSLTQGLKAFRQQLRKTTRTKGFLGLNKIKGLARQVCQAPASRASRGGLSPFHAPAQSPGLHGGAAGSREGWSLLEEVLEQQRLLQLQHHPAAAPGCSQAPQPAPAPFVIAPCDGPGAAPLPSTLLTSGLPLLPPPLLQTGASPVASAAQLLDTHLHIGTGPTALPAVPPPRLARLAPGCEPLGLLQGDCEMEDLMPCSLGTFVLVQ
How it was run: as §1

Sequence of SIK2 (Q9H0K1 whole entry): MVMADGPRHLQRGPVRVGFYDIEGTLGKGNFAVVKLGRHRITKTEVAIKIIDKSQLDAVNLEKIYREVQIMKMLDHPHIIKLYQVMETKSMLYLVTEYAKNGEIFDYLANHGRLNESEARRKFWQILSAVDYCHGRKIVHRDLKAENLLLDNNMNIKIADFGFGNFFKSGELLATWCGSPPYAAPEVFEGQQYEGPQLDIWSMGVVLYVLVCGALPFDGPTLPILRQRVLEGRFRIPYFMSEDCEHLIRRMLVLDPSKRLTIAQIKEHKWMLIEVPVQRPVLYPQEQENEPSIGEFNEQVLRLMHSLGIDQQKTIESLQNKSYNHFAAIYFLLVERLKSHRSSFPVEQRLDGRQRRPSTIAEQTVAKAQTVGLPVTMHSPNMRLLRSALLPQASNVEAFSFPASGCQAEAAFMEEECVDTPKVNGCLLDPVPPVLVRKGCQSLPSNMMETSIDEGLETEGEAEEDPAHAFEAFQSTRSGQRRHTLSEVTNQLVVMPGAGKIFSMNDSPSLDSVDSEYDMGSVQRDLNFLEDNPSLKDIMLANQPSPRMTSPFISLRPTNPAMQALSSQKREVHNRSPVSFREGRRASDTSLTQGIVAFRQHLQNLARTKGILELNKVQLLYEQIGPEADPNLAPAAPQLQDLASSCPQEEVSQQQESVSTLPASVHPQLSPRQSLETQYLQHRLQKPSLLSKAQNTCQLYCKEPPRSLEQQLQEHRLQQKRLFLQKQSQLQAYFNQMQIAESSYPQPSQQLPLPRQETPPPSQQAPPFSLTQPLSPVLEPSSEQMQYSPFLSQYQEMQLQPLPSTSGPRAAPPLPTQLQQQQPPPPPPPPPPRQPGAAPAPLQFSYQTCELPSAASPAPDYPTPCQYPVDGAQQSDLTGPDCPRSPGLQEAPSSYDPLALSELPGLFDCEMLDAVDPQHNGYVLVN

Row | pIC50 (SIK2) | pIC50 (SIK3) | pIC50 (SIK1) | SMILES
1 | 8.28 | 8.68 | 8.15 | Cc1ccc(Nc2ccc3c(c2)ncn3-c2ccc(C(C)O)c(-n3nc(C#N)cc3C)n2)nc1 (stereo not drawn) [Example 84, 1-[3-(1-hydroxyethyl)-6-[5-[(5-methyl-2-pyridyl)amino]benzimidazol-1-yl]-2-pyridyl]-5-methyl-pyrazole-3-carbonitrile]
2 | 8.11 | 8.66 | 6.35 | CCOc1cc(C)n(-c2nc(-n3cnc4cc(Nc5ccc(C)nn5)ccc43)ccc2C(C)O)n1 (stereo not drawn) [Example 133, 1-[2-(3-Ethoxy-5-methyl-pyrazol-1-yl)-6-[5-[(6-methylpyridazin-3-yl)amino]benzimidazol-1-yl]-3-pyridyl]ethanol; formic acid]
3 | 8.55 | 8.60 | 7.66 | Cc1nnc(Nc2cc3ncn(-c4ccc(C(C)O)c(-n5nc(C#N)cc5C)n4)c3cc2F)s1 (stereo not drawn) [Example 385, 1-[6-[6-fluoro-5-[(5-methyl-1,3,4-thiadiazol-2-yl)amino]benzimidazol-1-yl]-3-(1-hydroxyethyl)-2-pyridyl]-5-methyl-pyrazole-3-carbonitrile]
4 | 7.44 | 6.72 | 7.35 | Cc1ccc(Oc2ccc3ncn(-c4ccc(C(C)O)c(-n5nc(C#N)cc5C)n4)c3c2)nn1 (stereo not drawn) [Example 74, 1-[3-(1-Hydroxyethyl)-6-[6-(6-methylpyridazin-3-yl)oxybenzimidazol-1-yl]-2-pyridyl]-5-methyl-pyrazole-3-carbonitrile]
5 | 7.69 | 8.49 | 5.80 | Cc1ccc(Nc2ccc3c(c2)ncn3-c2ccc(C(C)O)c(-n3nc(C(F)F)nc3C)n2)nn1 (stereo not drawn) [Example 344, 1-[2-[3-(difluoromethyl)-5-methyl-1,2,4-triazol-1-yl]-6-[5-[(6-methylpyridazin-3-yl)amino]benzimidazol-1-yl]-3-pyridyl]ethanol]
6 | 7.70 | 6.82 | 7.41 | Cc1ccc(Nc2ccc3ncn(-c4ccc(C(C)O)c(-n5nc(OC(F)F)cc5C(F)F)n4)c3c2)nn1 (stereo not drawn) [Example 405]
7 | 8.11 | 8.55 | 6.17 | Cc1cc(C(F)F)nn1-c1nc(-n2cnc3cc(Nc4cccnn4)c(F)cc32)ccc1[C@H](C)O [Example 307, (1S)-1-[2-[3-(difluoromethyl)-5-methyl-pyrazol-1-yl]-6-[6-fluoro-5-(pyridazin-3-ylamino)benzimidazol-1-yl]-3-pyridyl]ethanol]
8 | 9.52 | 9.40 | 7.57 | Cc1ccc(Nc2ccc3c(c2)ncn3-c2ccc(C(C)O)c(-n3nc(C#N)c(C)c3C)n2)nn1 (stereo not drawn) [Example 309, 1-[3-(1-hydroxyethyl)-6-[5-[(6-methylpyridazin-3-yl)amino]benzimidazol-1-yl]-2-pyridyl]-4,5-dimethyl-pyrazole-3-carbonitrile]
9 | 7.31 | 7.22 | 4.76 | Cc1cc(C(=O)N(C)C)c(Nc2cc3ncn(-c4ccc([C@H](C)O)c(-n5nc(C(F)F)cc5C)n4)c3cc2F)nn1 [Example 345, 3-[[1-[6-[3-(difluoromethyl)-5-methyl-pyrazol-1-yl]-5-[(1~{S})-1-hydroxyethyl]-2-pyridyl]-6-fluoro-benzimidazol-5-yl]amino]-~{N},~{N},6-trimethyl-pyridazine-4-carboxamide]
10 | 8.64 | 8.74 | 7.09 | COC(=N)c1cc(C)n(-c2nc(-n3cnc4cc(Nc5ccc(C)nn5)ccc43)ccc2[C@H](C)O)n1 [Example 276, 1-[3-[(1S)-1-hydroxyethyl]-6-[5-[(6-methylpyridazin-3-yl)amino]benzimidazol-1-yl]-2-pyridyl]-5-methyl-pyrazole-3-carboximidic acid methyl ester]
11 | 7.67 | 8.10 | 5.98 | CCc1cc(-c2nc(-n3cnc4cc(Nc5ccc(C)nn5)ccc43)ccc2C(C)O)c(C)cn1 (stereo not drawn) [Example 283, 1-[2-(2-ethyl-5-methyl-4-pyridyl)-6-[5-[(6-methylpyridazin-3-yl)amino]benzimidazol-1-yl]-3-pyridyl]ethanol]

Continued, compound first:

Row | SMILES | pIC50 (SIK2) | pIC50 (SIK3) | pIC50 (SIK1)
12 | COc1cc2ncn(-c3ccc(CO)c(N4CCCCC4)n3)c2cc1OC [Example 28, (6-(5,6-Dimethoxy-1H-benzo[d]imidazol-1-yl)-2-(piperidin-1-yl)pyridin-3-yl)methanol] | 6.57 | 6.15 | 6.49
13 | Cc1ccc(Nc2ccc3c(c2)ncn3-c2ccc(C(C)O)c(-c3nn(CC(F)(F)F)cc3C)n2)nn1 (stereo not drawn) [Example 349, 1-[6-[5-[(6-methylpyridazin-3-yl)amino]benzimidazol-1-yl]-2-[4-methyl-1-(2,2,2-trifluoroethyl)pyrazol-3-yl]-3-pyridyl]ethanol] | 8.28 | 8.18 | 6.36
14 | COc1cc2ncn(-c3ccc([C@H](C)O)c(-c4ccn(C)c(=O)c4)n3)c2cc1OC [Example 41, (S)-6-(5,6-Dimethoxy-1H-benzo[d]imidazol-1-yl)-3-(1-hydroxyethyl)-1′-methyl-[2,4′-bipyridin]-2′(1′H)-one] | 7.04 | 6.52 | 6.71
15 | COc1cc2ncn(-c3ccc(C(O)C4CC4)c(-c4cccc(Cl)c4)n3)c2cc1OC (stereo not drawn) [Example 25, (2-(3-Chlorophenyl)-6-(5,6-dimethoxy-1H-benzo[d]imidazol-1-yl)pyridin-3-yl)(cyclopropyl)methanol] | 6.22 | 6.01 | 6.11
16 | Cc1ccc(Nc2ccc3c(c2)ncn3-c2ccc(C(C)O)c(N3CCN(CC(F)(F)F)C(=O)C3)n2)nn1 (stereo not drawn) [Example 136, 4-[3-(1-Hydroxyethyl)-6-[5-[(6-methylpyridazin-3-yl)amino]benzimidazol-1-yl]-2-pyridyl]-1-(2,2,2-trifluoroethyl)piperazin-2-one] | 7.89 | 8.41 | 6.46
17 | Cc1ccc(Nc2ccc3ncn(-c4ccc(C(C)O)c(N5CC[C@@H]6NCC[C@H]65)n4)c3c2)nn1 (stereo partly drawn) [Example 125, 1-[6-[6-[(6-Methylpyridazin-3-yl)amino]benzimidazol-1-yl]-2-[(3aR,6aS)-2,3,3a,5,6,6a-hexahydro-1H-pyrrolo[3,2-b]pyrrol-4-yl]-3-pyridyl]ethanol; formic acid] | 6.06 | 6.05 | 6.01
18 | Cc1cc(C#N)nn1-c1nc(-n2cnc3cc(N4CC[C@H](O)C4)ccc32)ccc1C(C)O (stereo partly drawn) [Example 78, 1-[3-(1-hydroxyethyl)-6-[5-[(3S)-3-hydroxypyrrolidin-1-yl]benzimidazol-1-yl]-2-pyridyl]-5-methyl-pyrazole-3-carbonitrile; formic acid] | 7.94 | 7.69 | 7.48
19 | COc1cc2ncn(-c3ccc(C(C)O)c(-c4cccc(Cl)c4)n3)c2cc1OC (stereo not drawn) [Example 19, 1-(2-(3-Chlorophenyl)-6-(5,6-dimethoxy-1H-benzo[d]imidazol-1-yl)pyridin-3-yl)ethan-1-ol] | 7.58 | 6.93 | 7.17
20 | Cc1nn(CC(F)(F)F)cc1-c1nc(-n2cnc3cc(Oc4ccc(CN5CCN(C)CC5)nn4)ccc32)ccc1C(C)O (stereo not drawn) [Example 352, 1-[6-[5-[6-[(4-methylpiperazin-1-yl)methyl]pyridazin-3-yl]oxybenzimidazol-1-yl]-2-[3-methyl-1-(2,2,2-trifluoroethyl)pyrazol-4-yl]-3-pyridyl]ethanol] | 7.78 | 7.62 | 5.63
